For orientation: IC50 means the concentration that gives 50% inhibition.

Here are results for 1 compound from patent publication US20090036484A1, “Use of Unsaturated Quionoline or Naphtalene Derivatives as Medicaments” (AstraZeneca AB, priority 2004, published 2009).

In the test the target is T1, recombinant human GR (Homo sapiens, UniProt P04150).
T1 construct: purchased Panvera/Invitrogen P2812 (kit P2893)
T1 sequence (P04150 1-777): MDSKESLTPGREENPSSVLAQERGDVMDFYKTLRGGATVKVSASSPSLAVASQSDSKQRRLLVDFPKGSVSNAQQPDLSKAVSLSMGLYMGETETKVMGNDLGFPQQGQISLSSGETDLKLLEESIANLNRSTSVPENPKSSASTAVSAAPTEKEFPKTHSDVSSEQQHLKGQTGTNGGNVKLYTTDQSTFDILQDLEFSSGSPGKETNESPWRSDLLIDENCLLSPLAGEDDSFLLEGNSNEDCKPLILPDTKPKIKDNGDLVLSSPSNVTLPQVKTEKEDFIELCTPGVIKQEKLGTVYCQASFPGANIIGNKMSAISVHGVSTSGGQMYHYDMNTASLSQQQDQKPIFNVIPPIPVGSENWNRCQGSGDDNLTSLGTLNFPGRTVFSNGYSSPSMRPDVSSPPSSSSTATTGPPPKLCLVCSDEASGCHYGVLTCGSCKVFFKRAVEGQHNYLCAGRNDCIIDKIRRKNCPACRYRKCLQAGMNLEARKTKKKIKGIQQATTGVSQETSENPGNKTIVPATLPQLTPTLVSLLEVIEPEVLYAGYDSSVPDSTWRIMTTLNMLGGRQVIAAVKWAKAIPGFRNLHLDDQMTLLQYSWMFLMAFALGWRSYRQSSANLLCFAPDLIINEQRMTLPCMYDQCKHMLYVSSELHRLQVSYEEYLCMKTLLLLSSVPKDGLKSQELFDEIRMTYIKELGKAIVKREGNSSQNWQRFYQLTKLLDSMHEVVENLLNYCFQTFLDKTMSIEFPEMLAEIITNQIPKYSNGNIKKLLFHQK
The test can be described thus: Human Glucocorticoid Receptor (GR) fluorescence polarization assay. The class given is binding. Particulars: GS Red tracer, 2 hours at room temperature. Here is the method: Human Glucocorticoid Receptor (GR) Assay
The assay is based on a commercial kit from Panvera/Invitrogen (Part number P2893). The assay technology is fluorescence polarization. The kit utilises recombinant human GR (Panvera, Part number P2812), a Fluoromone™ labelled tracer (GS Red, Panvera, Part number P2894) and a Stabilizing Peptide 10× (Panvera, Part number P2815). The GR and Stabilizing Peptide reagents are stored at −70° C. while the GS Red is stored at −20° C. Also included in the kit are 1M DTT (Panvera, Part number P2325, stored at −20° C.) and GR Screening buffer 10× (Panvera, Part number P2814, stored at −70° C. initially but once thawed stored at room temperature). Avoid repeated freeze/thaws for all reagents. The GR Screening buffer 10× comprises 100 mM potassium phosphate, 200 mM sodium molybdate, 1 mM EDTA and 20% DMSO.
Test compounds (1 μL) and controls (1 μL) in 100% DMSO were added to black polystyrene 384-well plates (Greiner low volume black flat-bottom, part number 784076). 0% control was 100% DMSO and 100% control was 10 μM Dexamethasone. […] The plate was read in an Analyst plate reader (LJL Biosystems/Molecular Devices Corporation) or other similar plate reader capable of recording fluorescence polarization (excitation wavelength 530 nm, emission wavelength […] and a dichroic mirror at 561 nm). The IC50 values were calculated using XLfit model 205.
A general note: Polarisation of emitted light reports the rotation of a fluorescent probe.

Regarding `CC1=CC(C)(C)N(Cc2ccc(Cl)cc2)c2ccccc21` [CAS120109-44-6], the concentration for half-maximal inhibition (IC50) stood at 240 nM.
